From patent publication US6579689B2, “Modulation of γ-secretase activity” (Scios Inc., priority 2000, dated 2003)

Test system: γ-secretase
Assay: Cell-free 0.5% CHAPS solubilized γ-secretase activity, Aβ production (Aβ40 ELISA)
Assay type: biochemical, monkey
Conditions: for enhancement of γ-secretase activity by other phospholipids, compared with cardiolipin: concentration not given
Experimental: To produce membranes containing high levels of CT99, ˜10^9 CV-1 monkey fibroblast cells were infected with VV99 for 48 hours. After this period, the cells were harvested, washed with saline, and pelleted by low speed centrifugation at 1200 rpm for 10 minutes at 4° C. The cell pellet was resuspended in 25 mls 0.25 M sucrose, 10 mM Tris-HCl pH 7.5, 1 mM EDTA then homogenized with a Dounce homogenizer using a tight fitting pestle. The sample is centrifuged at 2300 rpm for 10 minutes at 4° C. This homogenization step was repeated.
The resulting pellets containing nuclei and large debris were discarded and the post-nuclear supernatants were combined. The supernatant fraction was centrifuged at 100,000×g for 30-60 minutes at 4° C. to collect membranes. The membranes were washed in buffer containing 0.2% saponin, 10 mM Tris-HCl pH 7.5, 1 mM EDTA to remove contaminating proteolytic activity, followed by centrifugation at 100,000×g for 30 minutes at 4° C. This step was repeated. Membranes at this stage can be used directly for assaying γ-secretase activity, or may be further treated to provide solubilized γ-secretase activity.
The saponin-washed membrane fraction was next solubilized with 0.5% CHAPS prepared in 10 mM Tris-HCl pH 7.5 with 5 mM EDTA. Aliquots of membranes containing γ-secretase activity were treated with detergent at 0° C. for 1 hour after which the treated samples were centrifuged at 100,000×g for 1 hour at 4° C. The resulting supernatants (soluble fractions) were assayed for Aβ production. 0.5% CHAPS was successful in solubilizing and preserving the γ-secretase activity.
To produce Aβ protein in vitro, an aliquot of the saponin-washed fraction or an aliquot of the 0.5% CHAPS treated soluble fraction was first adjusted to pH 7.0 by making a 1:10 dilution of the fraction with 1 M Tris-HCl pH 7.0 for a final concentration of 100mM Tris-HC1. The neutralized samples were incubated at 37° C. for various lengths of time, typically ranging from 0 (control) to 24 hours. After incubation, the samples were assayed for Aβ production as follows.
Wells of a 96-microtiter plate were coated overnight at 4° C. with 100 μl/well of a 4 μg/ml solution of purified monoclonal antibody 1702.1 diluted in phosphate buffered saline (PBS). The 1702.1 monoclonal antibody specifically recognizes the Aβ40 isoform. […] The plate is washed three times with PBS 0.05% Tween 20 and the amount of 1101.1 second antibody bound to the well is detected with HRP-conjugated Streptavidin (Zymed) using a tetramethylbenzidine substrate (Sigma). The resulting colormetric reaction is quantified by reading the plate at OD^450nm. The amount of Aβ40 present in the test sample is calculated from known amounts of synthetic Aβ40 peptide standard run in the ELISA. […]

Compound	enhancement of γ-secretase activity by other phospholipids, compared with cardiolipin	enhancement of γ-secretase activity (Aβ production) by added phospholipid (1 μM cardiolipin, FIG. 4)
phosphotidylserine	comparable results	–
cardiolipin	–	nearly equivalent to the activity originally present in the membranes prior to solubilization
CCCCCCCCCCCCCCCC(=O)OC[C@H](COP(=O)([O-])OCC[N+](C)(C)C)OC(=O)CCCCCCCCCCCCCCC [1,2 dipalmitoyl-5-glycerol-3-phosphocholine]	comparable results	–
phosphotidylcholine	comparable results	–
